We go through 26 compounds from patent US20090069370A1, “AZACYCLYLISOQUINOLINONE AND ISOINDOLINONE DERIVATIVES AS HISTAMINE-3 ANTAGONISTS” (Wyeth, priority 2007, published 2009).

Usually Ki stands for a measure of affinity in units of concentration, obtained from inhibition or displacement. Usually melting point stands for the temperature of the solid-liquid transition.

Structures can show the parent of a compound that is named as a salt.

The target in the first data set is T1, Human Histamine H3 Receptor (Homo sapiens, UniProt Q9Y5N1).
T1 construct: expressed in transfected cells; host or cells: HEK293T cells, stably transfected; membrane preparation
T1 sequence (Q9Y5N1 whole entry): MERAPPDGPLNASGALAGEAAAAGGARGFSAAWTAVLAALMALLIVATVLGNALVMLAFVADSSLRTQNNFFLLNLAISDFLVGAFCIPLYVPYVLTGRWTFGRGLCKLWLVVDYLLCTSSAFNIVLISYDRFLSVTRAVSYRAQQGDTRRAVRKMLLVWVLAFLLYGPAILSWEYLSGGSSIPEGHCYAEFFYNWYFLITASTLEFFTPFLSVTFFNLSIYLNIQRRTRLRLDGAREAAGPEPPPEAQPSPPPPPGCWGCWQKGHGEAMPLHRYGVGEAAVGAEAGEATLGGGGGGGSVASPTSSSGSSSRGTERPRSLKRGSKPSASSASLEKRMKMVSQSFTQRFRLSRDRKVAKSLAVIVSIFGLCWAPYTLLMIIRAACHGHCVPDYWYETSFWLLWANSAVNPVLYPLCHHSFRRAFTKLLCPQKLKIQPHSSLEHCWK
Description: Methyl histamine binding in human histamine H3 receptor cell line. The settings on record: membranes of stably transfected HEK293T cells; radioligand 1 nM; Ki from IC50 by Cheng-Prusoff. The procedure:
Evaluation of Methyl Histamine Binding in Human Histamine H3 Receptor Cell Line
The affinity of test compounds for the histamine 3 (H3) receptor is evaluated in the following manner. Stably transfected HEK293T cells are grown in DMEM containing 10% heat inactivated FBS and G-418 (500 ug/ml). Cells are scraped from the plate, transferred to centrifuge tubes, washed one time in PBS by centrifugation in a Sorvall RT7 Plus centrifuge (2000 rpm 10 minutes, 4° C.). The resulting pellets are stored at −80° C. until ready for use. Cells are re-suspended in buffer (50 mM Tris pH=7.5) and placed in a Dounce homogenizer, douncing ten times to homogenize cells. The homogenate is spun down by centrifugation (Sorvall RT7 Plus, 1800 rpm 10 minutes, 4° C.). The supernatant is placed in a Corex tube and spun down by centrifugation (Sorvall RC 5c Plus, 17,000 rpm 20 minutes, 4° C.). The pellet is resuspended in buffer (50 mM Tris, pH 7.5). Protein concentration (ug/ul) is determined using the Micro-BCA Protein Determination. The binding assay is set up in a 96 well microtiter plate in a total volume of 250 uL. Non-specific binding is determined in the presence of 10 uM clobenpropit. The final radioligand concentration is 1 nM. The test compound is serially diluted using the Beckman Biomek2000 to a final approximate range of 100 uM to 100 pM. Membranes are suspended in buffer, homogenized in 2 bursts of ten seconds using a Vitris mechanical homogenizer set at power setting 5. Ten μg of membranes are added to each well. Following a one hour incubation at 30° C., the reaction is terminated by the addition of ice cold buffer and rapid filtration with a Packard Filtermate Harvester through a GF/B filter pre-soaked with 1% PEI for one hour. The plate is dried for one hour at 37° C. and 60 μL Microscint Scintillant is added to each well. The CPM per well is measured on a Packard Top Count NXT. Ki values are determined in nM. The Ki is calculated from the IC50 (i.e. the concentration of competing ligand which displaces 50% of the specific binding of the radioligand). CPM values are expressed as % specific binding and plotted vs compound concentration. A curve is fitted using a four-parameter logistic fit and the IC50 value is determined. The Ki is calculated from this using the Cheng-Prusoff equation: […]=IC50/1+(L/Kd) where L=concentration of free radioligand used in the assay, and Kd is the dissociation constant of the radioligand for the receptor. L is determined for each experiment by counting an aliquot of the diluted radioligand (corresponding to that added to each well) and the Kd has previously been determined under identical conditions for this cell line/radioligand.
In the case of `O=C(O)c1ccc(Oc2ccc3c(c2)CCN(C2CCN(C4CCC4)CC2)C3=O)cc1` [Example 2, 4-{[2-(1-cyclobutylpiperidin-4-yl)-1-oxo-1,2,3,4-tetrahydroiso-quinolin-6-yl]oxy}benzoic acid], the Ki fell in the range of 0.0501 to 0.1 µM.
On the same count and under the same terms, the same measure for `COC(=O)c1ccc(COc2ccc3c(c2)CCN(C2CCN(C4CCC4)CC2)C3=O)cc1` [Example 13, methyl 4-({[2-(1-Cyclobutylpiperidin-4-yl)-1-oxo-1,2,3,4-tetrahydroisoquinolin-6-yl]oxy}methyl)benzoate]: 0.0101 to 0.025 µM.
On the same count and under the same terms, with `O=C(c1ccc(-c2ccc3c(c2)CCN(C2CCN(C4CCCC4)CC2)C3=O)cc1)N1CCCC1` [Example 66, 2-(1-cyclopentylpiperidin-4-yl)-6-[4-(pyrrolidin-1-ylcarbonyl)phenyl]-3,4-dihydroisoquinolin-1(2H)-one] the figure was ≤ 0.01 µM; with `CC(C)N1CCC(N2CCc3cc(-c4ccc(C(=O)N5CCCC5)cc4)ccc3C2=O)CC1` [Example 67, 2-(1-isopropylpiperidin-4-yl)-6-[4-(pyrrolidin-1-ylcarbonyl)phenyl]-3,4-dihydroisoquinolin-1(2H)-one], ≤ 0.01 µM.
The same measure, in the same setting: the same measure for `O=C(c1ccc(-c2ccc3c(c2)CCN([C@@H]2CCCN(C4CCC4)C2)C3=O)cc1)N1CCCC1` [Example 70, 2-[(3R)-1-cyclobutylpiperidin-3-yl]-6-[4-(pyrrolidin-1-ylcarbonyl)phenyl]-3,4-dihydroisoquinolin-1(2H)-one]: 0.0101 to 0.025 µM; for `O=C(c1ccc(-c2ccc3c(c2)CCN([C@@H]2CCCN(C4CCCC4)C2)C3=O)cc1)N1CCCC1` [Example 71, 2-[(3R)-1-cyclopentylpiperidin-3-yl]-6-[4-(pyrrolidin-1-ylcarbonyl)phenyl]-3,4-dihydroisoquinolin-1(2H)-one]: 0.0101 to 0.025 µM.
For the compound `CC(C)N1CCC[C@@H](N2CCc3cc(-c4ccc(C(=O)N5CCCC5)cc4)ccc3C2=O)C1` [Example 72, 2-[(3R)-1-isopropylpiperidin-3-yl]-6-[4-(pyrrolidin-1-ylcarbonyl)phenyl]-3,4-dihydroisoquinolin-1(2H)-one], the Ki is > 0.1 µM.
On to `C[C@H]1CCCN1C(=O)c1ccc(-c2ccc3c(c2)CCN([C@@H]2CCN(C4CCC4)C2)C3=O)c(F)c1` [Example 73, 2-[(3R)-1-cyclobutylpyrrolidin-3-yl]-6-(2-fluoro-4-{[(2S)-2-methylpyrrolidin-1-yl]carbonyl}phenyl)-3,4-dihydroisoquinolin-1(2H)-one], for which the Ki is ≤ 0.01 µM.
Same read-out and setting: with `O=C(NC1CCC1)c1ccc(-c2ccc3c(c2)CCN([C@@H]2CCN(C4CCC4)C2)C3=O)c(F)c1` [Example 74, N-cyclobutyl-4-{2-[(3R)-1-cyclobutylpyrrolidin-3-yl]-1-oxo-1,2,3,4-tetrahydroisoquinolin-6-yl}-3-fluorobenzamide] the figure was ≤ 0.01 µM; with `CNC(=O)c1ccc(-c2ccc3c(c2)CCN([C@@H]2CCN(C4CCC4)C2)C3=O)c(F)c1` [Example 75, 4-{2-[(3R)-1-cyclobutylpyrrolidin-3-yl]-1-oxo-1,2,3,4-tetrahydroisoquinolin-6-yl}-3-fluoro-N-methylbenzamide], ≤ 0.01 µM; with `C[C@@H]1CCCN1C(=O)c1ccc(-c2ccc3c(c2)CCN([C@@H]2CCN(C4CCC4)C2)C3=O)c(F)c1` [Example 76, 2-[(3R)-1-cyclobutylpyrrolidin-3-yl]-6-(2-fluoro-4-{[(2R)-2-methylpyrrolidin-1-yl]carbonyl}phenyl)-3,4-dihydroisoquinolin-1(2H)-one], ≤ 0.01 µM.
As to `CCNC(=O)c1ccc(-c2ccc3c(c2)CCN([C@@H]2CCN(C4CCC4)C2)C3=O)c(F)c1` [Example 77, 4-{2-[(3R)-1-cyclobutylpyrrolidin-3-yl]-1-oxo-1,2,3,4-tetrahydroisoquinolin-6-yl}-N-ethyl-3-fluorobenzamide], the Ki is ≤ 0.01 µM.
Consider `CN(C)C(=O)c1ccc(-c2ccc3c(c2)CCN([C@@H]2CCN(C4CCC4)C2)C3=O)c(F)c1` [Example 78, 4-{2-[(3R)-1-cyclobutylpyrrolidin-3-yl]-1-oxo-1,2,3,4-tetrahydroisoquinolin-6-yl}-3-fluoro-N,N-dimethylbenzamide], for which the Ki was ≤ 0.01 µM.
Consider `O=C(c1ccc(-c2ccc3c(c2)CCN([C@@H]2CCN(C4CCC4)C2)C3=O)c(F)c1)N1CCCC1` [Example 79, 2-[(3R)-1-cyclobutylpyrrolidin-3-yl]-6-[2-fluoro-4-(pyrrolidin-1-ylcarbonyl)phenyl]-3,4-dihydroisoquinolin-1(2H)-one], for which the Ki is ≤ 0.01 µM.
With `O=C(NC1CCCC1)c1ccc(-c2ccc3c(c2)CCN([C@@H]2CCN(C4CCC4)C2)C3=O)c(F)c1` [Example 80, 4-{2-[(3R)-1-cyclobutylpyrrolidin-3-yl]-1-oxo-1,2,3,4-tetrahydroisoquinolin-6-yl}-N-cyclopentyl-3-fluorobenzamide], the Ki is ≤ 0.01 µM.
The same measure, in the same setting: with `O=C(NC1CC1)c1ccc(-c2ccc3c(c2)CCN([C@@H]2CCN(C4CCC4)C2)C3=O)c(F)c1` [Example 81, 4-{2-[(3R)-1-cyclobutylpyrrolidin-3-yl]-1-oxo-1,2,3,4-tetrahydroisoquinolin-6-yl}-N-cyclopropyl-3-fluorobenzamide] the figure was ≤ 0.01 µM; with `CNC(=O)c1ccc(-c2ccc3c(c2)CCN([C@@H]2CCN(C(C)C)C2)C3=O)cc1` [Example 82], ≤ 0.01 µM; with `CCNC(=O)c1ccc(-c2ccc3c(c2)CCN([C@@H]2CCN(C(C)C)C2)C3=O)cc1` [Example 83, N-ethyl-4-{2-[(3R)-1-isopropylpyrrolidin-3-yl]-1-oxo-1,2,3,4-tetrahydroisoquinolin-6-yl}benzamide], ≤ 0.01 µM.
Still for that read-out and setting: the same measure for `CC(C)N1CC[C@@H](N2CCc3cc(-c4ccc(C(=O)N5CCCC5)cc4F)ccc3C2=O)C1` [Example 84, 6-[2-fluoro-4-(pyrrolidin-1-ylcarbonyl)phenyl]-2-[(3R)-1-isopropylpyrrolidin-3-yl]-3,4-dihydroisoquinolin-1(2H)-one]: ≤ 0.01 µM.
In the case of `CNC(=O)c1ccc(-c2ccc3c(c2)CCN([C@@H]2CCN(C(C)C)C2)C3=O)c(F)c1` [Example 85, 3-fluoro-4-{2-[(3R)-1-isopropylpyrrolidin-3-yl]-1-oxo-1,2,3,4-tetrahydroisoquinolin-6-yl}-N-methylbenzamide], the Ki was ≤ 0.01 µM.
For the compound `CCNC(=O)c1ccc(-c2ccc3c(c2)CCN([C@@H]2CCN(C(C)C)C2)C3=O)c(F)c1` [Example 86, N-ethyl-3-fluoro-4-{2-[(3R)-1-isopropylpyrrolidin-3-yl]-1-oxo-1,2,3,4-tetrahydroisoquinolin-6-yl}benzamide], the Ki was ≤ 0.01 µM.
Same read-out and setting: with `O=C(c1ccc2c(c1)CCN([C@@H]1CCN(C3CCC3)C1)C2=O)N1CCCC1` [Example 87, 2-[(3R)-1-cyclobutylpyrrolidin-3-yl]-6-(pyrrolidin-1-ylcarbonyl)-3,4-dihydroisoquinolin-1(2H)-one hydrochloride] the figure was 0.0251 to 0.05 µM; with `O=C(NC1CCCC1)c1ccc2c(c1)CCN([C@@H]1CCN(C3CCC3)C1)C2=O` [Example 88, 2-[(3R)-1-cyclobutylpyrrolidin-3-yl]-N-cyclopentyl-1-oxo-1,2,3,4-tetrahydroisoquinoline-6-carboxamide hydrochloride], 0.0101 to 0.025 µM; with `O=C1NCCc2cc(-c3ccc4c(c3)CCN([C@@H]3CCN(C5CCC5)C3)C4=O)ccc21` [Example 89, (R)-2-(1-cyclobutylpyrrolidin-3-yl)-3,3′,4,4′-tetrahydro-6,6′-biisoquinoline-1,1′(2H,2′H)-dione hydrochloride], ≤ 0.01 µM.
Same read-out and setting: with `CNC(=O)c1ccc(-c2ccc3c(c2)CN([C@@H]2CCN(C4CCC4)C2)C3=O)cc1` [Example 91, (R)-4-(2-(1-cyclobutylpyrrolidin-3-yl)-1-oxoisoindolin-5-yl)-N-methylbenzamide hydrochloride] the figure was 0.0101 to 0.025 µM.
On the same count and under the same terms, with `O=C(c1ccc(-c2ccc3c(c2)CN([C@@H]2CCN(C4CCC4)C2)C3=O)cc1)N1CCCC1` [Example 92, (R)-2-(1-cyclobutylpyrrolidin-3-yl)-5-(4-(pyrrolidine-1-carbonyl)-phenyl)isoindolin-1-one hydrochloride] the figure was ≤ 0.01 µM.

Test system in the next data set: not given
Assay: not given
Conditions: not given
In turn, `O=C(O)c1ccc(Oc2ccc3c(c2)CCN(C2CCN(C4CCC4)CC2)C3=O)cc1` [Example 2, 4-{[2-(1-cyclobutylpiperidin-4-yl)-1-oxo-1,2,3,4-tetrahydroiso-quinolin-6-yl]oxy}benzoic acid] came in with a melting point of 255 to 256 °C.
Still for that read-out and setting: the same measure for `COC(=O)c1ccc(COc2ccc3c(c2)CCN(C2CCN(C4CCC4)CC2)C3=O)cc1` [Example 13, methyl 4-({[2-(1-Cyclobutylpiperidin-4-yl)-1-oxo-1,2,3,4-tetrahydroisoquinolin-6-yl]oxy}methyl)benzoate]: 165 to 166 °C.
